According to ChEMBL document CHEMBL1156264, “Synthesis and structure-activity relationships of dimeric peptide antagonists of the human immunoglobulin G-human neonatal Fc receptor (IgG-FcRn) interaction” (J Med Chem, 2010):
Numbered stars: 1 amine (or outer) side, 2 acyl side, 3 side chain; on linkers, the order of the positions; unused ones are H or OH. Bridge positions count the residues as written; N and C are the ends. Square brackets hold non-standard residues; d marks the D form. Peptide text beside a SMILES is read from it. I, II: the chains in the order shown. X3 = CN(CCCNC(=O)CCNC(=O)CCSCC(=O)[*:1])CCCNC(=O)CCNC(=O)CCSCC(=O)[*:2]; X1 = O=C(C(=O)[*:2])[C@H](Cc1ccc(O)cc1)N[*:1]; NMeL = CN[C@@H](CC(C)C)C(=O)O; X4 = O=C(CSCC(=O)[*:2])[*:1]; Sar = CNCC(=O)O

Assays:
[1] = target: T1, IgG receptor FcRn large subunit p51 (Homo sapiens, UniProt P55899); assay: Inhibition of IgG binding to soluble human FcRn after 2 hrs by competition ELISA
T1 sequence (P55899 whole entry): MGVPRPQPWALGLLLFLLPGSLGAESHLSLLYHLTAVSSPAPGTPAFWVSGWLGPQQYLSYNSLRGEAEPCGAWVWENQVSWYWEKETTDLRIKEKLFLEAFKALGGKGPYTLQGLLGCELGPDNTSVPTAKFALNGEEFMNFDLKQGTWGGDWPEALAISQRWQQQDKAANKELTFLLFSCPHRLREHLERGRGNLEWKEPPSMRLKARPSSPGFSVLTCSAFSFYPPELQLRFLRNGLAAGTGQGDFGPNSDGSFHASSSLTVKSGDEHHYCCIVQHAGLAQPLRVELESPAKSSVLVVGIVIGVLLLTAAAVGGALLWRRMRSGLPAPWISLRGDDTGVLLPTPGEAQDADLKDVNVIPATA

[2] = target: T1, IgG receptor FcRn large subunit p51; assay: Ratio of QRF-Asp-TGHFGGLYP-Lys-NGP IC50 to compound IC50 for soluble human FcRn

Structure (SMILES)	IC50 [1] [nM]	Ratio IC50 [2]
CC(C)C[C@H]1C(=O)N[C@@H](Cc2ccc(O)cc2)C(=O)C(=O)N2CCC[C@H]2C(=O)N[C@H](C(=O)N[C@@H](CC(N)=O)C(=O)NCC(=O)N2CCC[C@H]2C(N)=O)CCCCNC(=O)C[C@H](NC(=O)[C@H](Cc2ccccc2)NC(=O)CSCCC(=O)NCCCN(CCCNC(=O)CCSCC(=O)N[C@@H](CCC(N)=O)C(=O)N[C@@H](CCCNC(=N)N)C(=O)N[C@@H](Cc2ccccc2)C(=O)N[C@H]2CC(=O)NCCCC[C@@H](C(=O)N[C@@H](CC(N)=O)C(=O)NCC(=O)N3CCC[C@H]3C(N)=O)NC(=O)[C@@H]3CCCN3C(=O)C(=O)[C@H](Cc3ccc(O)cc3)NC(=O)[C@H](CC(C)C)N(C)C(=O)CN(C)C(=O)CNC(=O)[C@H](Cc3ccccc3)NC(=O)[C@H](Cc3c[nH]cn3)NC(=O)CNC(=O)[C@H]([C@@H](C)O)NC2=O)CC(=O)NCC(=O)O)C(=O)N[C@@H]([C@@H](C)O)C(=O)NCC(=O)N[C@@H](Cc2c[nH]cn2)C(=O)N[C@@H](Cc2ccccc2)C(=O)NCC(=O)N(C)CC(=O)N1C	600	37
CC(C)C[C@H]1C(=O)N[C@@H](Cc2ccc(O)cc2)C(=O)C(=O)N2CCC[C@H]2C(=O)N[C@H](C(=O)N[C@@H](CC(N)=O)C(=O)NCC(=O)N2CCC[C@H]2C(N)=O)CCCCNC(=O)C[C@H](NC(=O)[C@H](Cc2ccccc2)NC(=O)CSCCC(=O)NCCC(=O)NCCCN(C)CCCNC(=O)CCNC(=O)CCSCC(=O)N[C@@H](CCC(N)=O)C(=O)N[C@@H](CCCNC(=N)N)C(=O)N[C@@H](Cc2ccccc2)C(=O)N[C@H]2CC(=O)NCCCC[C@@H](C(=O)N[C@@H](CC(N)=O)C(=O)NCC(=O)N3CCC[C@H]3C(N)=O)NC(=O)[C@@H]3CCCN3C(=O)C(=O)[C@H](Cc3ccc(O)cc3)NC(=O)[C@H](CC(C)C)N(C)C(=O)CN(C)C(=O)CNC(=O)[C@H](Cc3ccccc3)NC(=O)[C@H](Cc3c[nH]cn3)NC(=O)CNC(=O)[C@H]([C@@H](C)O)NC2=O)C(=O)N[C@@H]([C@@H](C)O)C(=O)NCC(=O)N[C@@H](Cc2c[nH]cn2)C(=O)N[C@@H](Cc2ccccc2)C(=O)NCC(=O)N(C)CC(=O)N1C (I: QRFDTGHFG[Sar][NMeL][X1]PKNGP-NH2 / II: FDTGHFG[Sar][NMeL][X1]PKNGP-NH2; lactam I:4-I:14, II:2-II:12; linker I:N-II:N via X3)		9.2
CC(C)C[C@H]1C(=O)N[C@@H](Cc2ccc(O)cc2)C(=O)C(=O)N2CCC[C@H]2C(=O)N[C@H](C(=O)N[C@@H](CC(N)=O)C(=O)NCC(=O)N2CCC[C@H]2C(N)=O)CCCCNC(=O)C[C@H](NC(=O)[C@H](Cc2ccccc2)NC(=O)CSCC(=O)N[C@@H](CCC(N)=O)C(=O)N[C@@H](CCCNC(=N)N)C(=O)N[C@@H](Cc2ccccc2)C(=O)N[C@H]2CC(=O)NCCCC[C@@H](C(=O)N[C@@H](CC(N)=O)C(=O)NCC(=O)N3CCC[C@H]3C(N)=O)NC(=O)[C@@H]3CCCN3C(=O)C(=O)[C@H](Cc3ccc(O)cc3)NC(=O)[C@H](CC(C)C)N(C)C(=O)CN(C)C(=O)CNC(=O)[C@H](Cc3ccccc3)NC(=O)[C@H](Cc3c[nH]cn3)NC(=O)CNC(=O)[C@H]([C@@H](C)O)NC2=O)C(=O)N[C@@H]([C@@H](C)O)C(=O)NCC(=O)N[C@@H](Cc2c[nH]cn2)C(=O)N[C@@H](Cc2ccccc2)C(=O)NCC(=O)N(C)CC(=O)N1C (I: QRFDTGHFG[Sar][NMeL][X1]PKNGP-NH2 / II: FDTGHFG[Sar][NMeL][X1]PKNGP-NH2; lactam I:4-I:14, II:2-II:12; linker I:N-II:N via X4)	580	38
